The numbers were not newly measured in patent US20120093932A1, “TARGETED SUSTAINED-RELEASE MICROSPHERE OF VASCULAR OCCLUSIVE AGENT CONTAINING SODIUM ALGINATE AND SORAFENIB, PRODUCTION METHOD AND USE THEREOF” (Beijing Shengyiyao Science & Technology Development Co., …, priority 2009, published 2012), which cites them from elsewhere.

Structures are written as SMILES.

Assay in data set [1]: not given
The source holds these as a separate data set.

For data set [2] the following is noted: oral administration.
The conditions of data set [3]: oral single dose, solution containing 100 mg sorafenib.
For data set [4] the following is noted: 400 mg orally twice a day; Phase I.

As to `[O-][n+]1ccccc1` [pyridine N-Oxide], the “role in vitro compared to sorafenib” value is “plays a similar role to sorafenib”.

Regarding `CNC(=O)c1cc(Oc2ccc(NC(=O)Nc3ccc(Cl)c(C(F)(F)F)c3)cc2)ccn1.Cc1ccc(S(=O)(=O)O)cc1` [sorafenib tosylate], in data set [1] (alcohol), the solubility in alcohol result is recorded as “slightly soluble”. In data set [1] (aqueous solution, becomes higher a little bit under strongly acid condition), the “solubility in aqueous solution” value was “low”. The “solubility in polyethylene glycerol 400” value in data set [1] (polyethylene glycerol 400) is on record as “can be dissolved”.

Regarding `CNC(=O)c1cc(Oc2ccc(NC(=O)Nc3ccc(Cl)c(C(F)(F)F)c3)cc2)ccn1` [sorafenib, 4-{4-[3-(4-chloro-3-trifluoro-phenyl)-ureido]-phenoxyl}-pyridine-2-carboxylic methylamine], in data set [2], the “side effects: diarrhea” value is listed as 58%, the “side effects: gastrointestinal response” value is 95%, the “side effects: indigestion accompanied by appetite loss” value was 47% and the “side effects: nausea” value is reported as 30%. The “side effects: vomiting” value in data set [2] is 24%. For the same compound, the “excreted as glucuronic acid metabolic products in urine” value in data set [3] is 19%. In addition, in data set [3] (within 14 days), the “excreted unchanged (faeces)” value is recorded as 15% and the “sorafenib excreted in the faeces” value is on record as 77%. The tolerability and effectiveness entry in data set [4] was “tolerated and effective”.
